From paper PMC6493727, “FluoroCellTrack: An algorithm for automated analysis of high-throughput droplet microfluidic data” (PLoS ONE, 2019)

System: OPM-2 cells
Assay: Dose response of single OPM-2 cells to Bortezomib, live/dead staining in a droplet trapping array
Assay type: cell-based
Conditions: for Dead Cells / Live Cells: Calcein AM/EthD-1 staining; for Dead Cells / Live Cells / Overlapping Cells: FluoroCellTrack automated count, n=787 droplets
From the text: First, a mask was generated by detecting differently colored cells from the input image, Fig 3A. This mask (Fig 3B) was overlapped with the input image and was subjected to edge detection, dilation and erosion to yield Fig 3C, which was then segmented through random walker algorithm to detect and distinguish attached cells. Random walker segmentation algorithm was used over traditional watershed algorithm due to its highly precise probabilistic interpretation of local maxima (Fig 3D). The distinguished contours from this image were then filtered for area, where cellular area equal to or greater than 130 pixels were outlined and labeled as shown in Fig 3E. 130 was selected as the thresholding value due to the mean cellular area being ~140 pixels. This step was essential to exclude debris to eliminate false positives. However, in case of co-culture platforms, where primary cells are of the same size as that of the secondary cells, or in systems where the debris is of the same size as that of the cells, specific cellular or organelle staining can be used to distinguish these features and the extensive palette used in computer vision aids in easy detection of such features. […] For instance, similar features with slight deviations in shape, size and orientation were easily detected by the droplet/contour detection steps of FluoroCellTrack but would need a repository of many templates while using the template matching feature, showing that the latter can be highly uneconomical. The broad palette of colors in computer vision can be exploited here to detect any fluorescent cell and as an example here, the contour detection step was implemented to quantify actual cellular viability data as shown in Fig 4. Lower [B, G, R]: [0, 51, 0] and upper [B, G, R]: [153, 255, 153] boundaries were given for live cells and, dead cells were identified with the lower and upper color boundaries at; [153, 153, 255] while overlapping cells were identified with lower and upper color boundaries of [0, 51, 51]; [153, 255, 255]. Cells with overlapping signals in both the green and red filter sets represent cells with compromised plasma membranes (indicative of a dead cell), but with remaining esterase activity to react with the Calcein AM. These cells were noted as ‘dying’ cells to distinguish them from the clean live and dead signals using the other contour boundaries. The contours with specific colors were detected from the input images, where the positively detected live, dead and overlapping cells with an area equal to or greater than 130 pixels were outlined with distinct colors: live cells in red, dead cells in blue and overlapping cells in purple (Fig 4). The outlined cell-center map was overlaid with the droplet center map and scanned to fit within 25<R<50-micron values (denoted by white arrows), to account for single/multiple cell encapsulation information as shown in the output data of Fig 4. This step was essential to calculate the single-cell encapsulation efficiency and to eliminate cells that were freely floating in the device, thus including cells that were only inside the droplets. Additionally, the user can easily eliminate the droplet detection step to use this contour detection as a stand-alone platform (similar to ImageJ and Cell Profiler) to detect and quantify properties of fluorescent cells from other microfluidic or non-microfluidic applications. The advantage of FluoroCellTrack over current software tools like ImageJ and Cell Profiler lies in the fact that the former can be employed in non-droplet microfluidic platforms in addition to droplet microfluidics, but the latter cannot be used to quantify high-throughput droplet microfluidic data.
An important application of any automated platform is to count cells and sort them based on their fluorescent response. As an example, the dose-dependent single cell response of OPM-2 cells to a clinical inhibitor, Bortezomib was observed. […]

Compound: CC(C)C[C@H](NC(=O)[C@H](Cc1ccccc1)NC(=O)c1cnccn1)B(O)O [BTZ, Bortezomib]
- Dead Cells (1 nM BTZ, Day 1 (24 h)): 5
- Live Cells (1 nM BTZ, Day 1 (24 h)): 311
- Overlapping Cells (1 nM BTZ, Day 1 (24 h), overlapping = dying cells (green and red signal)): 28
- Dead Cells (1 nM BTZ, Day 2 (48 h)): 10
- Live Cells (1 nM BTZ, Day 2 (48 h)): 53
- Overlapping Cells (1 nM BTZ, Day 2 (48 h), overlapping = dying cells): 45
- Dead Cells (1 nM BTZ, Day 3 (72 h)): 53
- Live Cells (1 nM BTZ, Day 3 (72 h)): 140
- Overlapping Cells (1 nM BTZ, Day 3 (72 h), overlapping = dying cells): 206
- viability of single OPM-2 cells (1 nM, 10 nM and 100 nM, 24 h, 48 h and 72 h incubation): decrease in viability at increasing concentrations and incubation times
- Dead Cells (10 nM BTZ, Day 1 (24 h)): 5
- Live Cells (10 nM BTZ, Day 1 (24 h)): 49
- Overlapping Cells (10 nM BTZ, Day 1 (24 h), overlapping = dying cells): 38
- Dead Cells (10 nM BTZ, Day 2 (48 h)): 67
- Live Cells (10 nM BTZ, Day 2 (48 h)): 15
- Overlapping Cells (10 nM BTZ, Day 2 (48 h), overlapping = dying cells): 113
- Dead Cells (10 nM BTZ, Day 3 (72 h)): 92
- Live Cells (10 nM BTZ, Day 3 (72 h)): 0
- Overlapping Cells (10 nM BTZ, Day 3 (72 h), overlapping = dying cells): 107
- Dead Cells (100 nM BTZ, Day 1 (24 h)): 75
- Live Cells (100 nM BTZ, Day 1 (24 h)): 0
- Overlapping Cells (100 nM BTZ, Day 1 (24 h), overlapping = dying cells): 100
- Dead Cells (100 nM BTZ, Day 2 (48 h)): 320
- Live Cells (100 nM BTZ, Day 2 (48 h)): 3
- Overlapping Cells (100 nM BTZ, Day 2 (48 h), overlapping = dying cells): 149
- Dead Cells (100 nM BTZ, Day 3 (72 h)): 108
- Live Cells (100 nM BTZ, Day 3 (72 h)): 0
- Overlapping Cells (100 nM BTZ, Day 3 (72 h), overlapping = dying cells): 17
